Measurements published in paper PMC7534258, “Novel temporin L antimicrobial peptides: promoting self-assembling by lipidic tags to tackle superbugs” (Journal of Enzyme Inhibition and Medicinal Chemistry, 2020).
Entries after “also recorded” stand apart in the source; their conditions may differ. Where two headings read alike, the source gives them in different places. Where a SMILES comes first, the peptide text is derived from it. [ ]: non-standard residue; d: D form. The star is where a group is joined. Phe(4-NH2) = Nc1ccc(C[C@H](N)C(=O)O)cc1; Pentanoyl = CCCCC(=O)*

Assays:
[1] = 90% human serum, 37 ± 1 °C, 200 µM
Protocol: Human serum from human male AB plasma was acquired by Sigma-Aldrich-Merk. Water and MeCN were obtained from commercial suppliers and used without further purification. Analytical RP-UHPLC was performed on a Shimadzu Nexera equipped with a Phenomenex Kinetex column (C18, 4.6 mm x 150 mm, […]) and H2O (0.1% TFA) and MeCN (0.1% TFA) as eluents.
Serum stability was evaluated by modification of elsewhere described methods[37]^,[38]. In particular, the human serum was allocated into a 1.5 ml eppendorf tube and temperature equilibrated at 37 ± 1 °C for 15 min. Peptides 1B, and C were dissolved in sterile water to prepare a stock solution of 2 mM and then mixed with the human serum to make a final concentration of 0.2 mM (90% serum). The resulting reaction solution was incubated at 37 ± 1 °C. Aliquots of the reaction solutions were taken at known time intervals (0, 15, 45, 75, 90, 120 min), subjected to serum proteins precipitation by addition of MeCN (double volume respect to the aliquot). The cloudy reaction sample was cooled (4 °C) for 15 min and then spun at 13000 rpm for 10 min to pellet the precipitated serum proteins. The supernatant was then analysed by RP-UHPLC by using a linear elution gradient from 10 to 90% MeCN (0.1% TFA) in water (0.1% TFA) over 20 min. A flow rate of 1 ml/min was used, absorbance was detected at 220 nm, and the analysis was performed at room temperature.

HaCaT cells [2] = conditions: at 25.0 µM, ref Merlino et al. [22]; cited from earlier work
S. aureus ATCC 25923 = experiment: microbe, parasite or virus in culture; conditions: ATCC 25923
Protocol: Staphylococcus aureus ATCC 25923, Pseudomonas aeruginosa ATCC 27853 and Klebsiella pneumoniae ATCC BAA-1705 (carbapenemase producer) were obtained from the American Type Culture Collection (Rockville, MD).
Identification was performed by sub-culturing on Tryptic Soy Agar (TSA, Becton Dickinson) and by biochemical characterisation using the Vitek II system (Biomerieux). The antimicrobial susceptibility testing of all isolates was determined using Vitek II system and results were interpreted according to European Committee on Antimicrobial Susceptibility Testing (EUCAST version 9.0, 2019). P. aeruginosa was cultured in Brain Heart Infusion broth (BHI, OXOID), S. aureus and K. pneumoniae were cultured in Tryptic Soya broth (TSB, OXOID), under aerobic conditions at 37 °C, for 24 h on an orbital shaker at 200 rpm.
Minimal inhibitory concentrations (MIC) of all the peptides were determined in Mueller–Hinton medium by the broth microdilution assay, following the procedure already described[22]^,[34]. The compounds were added to bacterial suspension in each well yielding a final cell concentration of 1 × 10^6 CFU/ml and a final compound concentration ranging from 0.78 to 100 µM. Negative control wells were set to contain bacteria in Mueller–Hinton broth plus the amount of vehicle (ethanol) used to dilute each compound. Positive controls included vancomycin (2 µg/ml), tobramycin (4 µg/ml), gentamycin (4 µg/ml), and imipenem (8 µg/ml).

[3] = Critical aggregation concentration, Nile red fluorescence; assay type: physicochemical; conditions: aqueous solution, pH 7, Nile red, 1–200 µM peptide
Protocol: The solvatochromic fluorescent probe Nile red is widely used to determine the CAC of self-assembling peptides. […] Since Nile red is poorly soluble in water, there is a large preference to partition aggregates, which offer hydrophobic binding sites. Initially, 1 mM methanolic Nile red was prepared. Then, the methanolic Nile red was diluted with water in order to have a final concentration of 500 nM (solution A). The peptides 1B, 2B, 3B, C, were prepared as follows[39]: peptide stock solutions (0.4 mM) were prepared by dissolving the single peptides in water (1B, C) or tetrahydrofuran (3B, 2B) and sonicating for 15 min. Different aliquots were taken to prepare solutions of each peptide at different concentrations (1, 5, 10, 15, 20, 30, 50, 100 and 200 µM). Then, all solutions were diluted with water, sonicated for 15 min and freeze-dried. Finally, the peptide powders were dissolved with the right volume of solution A and allowed to stand in the dark place for 1 h before measurement. Emission spectra for each solution were measured by a Cary Eclipse Varian spectrometer. Spectra were taken between 570 and 700 nm at a slit width of 5 nm, using an excitation wavelength of 550 nm and a 10 nm slit width. The measurements were performed in triplicate. The data were analysed by plotting the maximum emission fluorescence corresponding wavelength (y) as a function of peptide concentration (x) and fitting with the sigmoidal Boltzmann equation: y=A1+A2/1+e^(x−x0/Δx)+A2 where the variables A1 and A2 correspond to the upper and lower limits of the sigmoid, x0 is the inflection point of the sigmoid and Δx is the parameter, which characterises the steepness of the function. The sigmoidal plot allows calculating the CAC value at x0.

HaCaT cells [4] = conditions: 24 h, at 25.0 µM
Protocol: The human immortalised keratinocytes HaCaT cells (AddexBio, San Diego, CA, USA) were cultured in Dulbecco’s modified Eagle’s medium containing 4 mM glutamine (DMEMg), supplemented with 10% heat-inactivated foetal bovine serum (FBS) and 0.1 mg/ml of penicillin and streptomycin, at 37 °C and 5% CO2, in 25 cm^2 or 75 cm^2 flasks[33].
The colorimetric MTT assay was carried out to measure cellular metabolic activity in terms of cell viability[33]^,[36]. Viable cells are able to reduce, by active mitochondrial dehydrogenases, the yellow salt MTT to purple formazan crystals. Briefly, 4 × 10^4 HaCaT cells, suspended in DMEMg supplemented with 2% FBS, were plated in each well of a 96-well microtiter plate. After overnight incubation, at 37 °C in a 5% CO2 atmosphere, keratinocytes were treated for 24 h with fresh serum-free medium containing the peptides 3B and C at concentrations ranging from 3.12 µM to 25 µM. Afterward, the culture medium was replaced with Hank’s buffer supplemented with 0.5 mg/ml MTT and the plate was incubated at 37 °C and 5% CO2 for 4 h. At the end, acidified isopropanol was employed to dissolve the formazan crystals. Cell viability was calculated, with respect to cells not treated with peptide, by absorbance measurements at 570 nm using a microplate reader (Infinite M200; Tecan, Salzburg, Austria)[33]. […]

| SMILES | proteolytic stability in human serum (in words) ([1]; within 120 min) | cytotoxicity (HaCaT cells [2]) [%] | Antimicrobial activity (MIC) S. aureus ATCC 25923 (S. aureus ATCC 25923) [µM] | CAC (critical aggregation concentration) [3] | start of partial degradation in human serum [1] [min] | time peptide is stable in human serum [1] | cytotoxicity (HaCaT cells [4]) [%] |
| --- | --- | --- | --- | --- | --- | --- | --- |
| CC[C@H](C)[C@H](NC(=O)[C@H](CCCNC(=N)N)NC(=O)[C@@H](CCCCN)NC(=O)[C@@H](CC(C)C)NC(=O)[C@H](Cc1ccccc1)NC(=O)[C@H](CCCCN)NC(=O)[C@H](CO)NC(=O)[C@H](Cc1ccccc1)NC(=O)[C@H](Cc1c[nH]c2ccccc12)NC(=O)[C@@H]1CCCN1C(=O)[C@@H](NC(=O)[C@@H](N)Cc1ccccc1)C(C)C)C(=O)N[C@@H](CC(C)C)C(N)=O [Compound 1B, H-Phe-Val-Pro-Trp-Phe-Ser-Lys-Phe-DLeu-DLys-Arg-Ile-Leu-NH2] (H-FVPWFSKF[dL][dK]RIL-NH2) | rapidly degraded | 28.22 | 6.25 | unable to aggregate under the range of concentrations investigated; also recorded: not aggregated at the concentration tested | – | – | – |
| CCCCC(=O)Nc1ccc(C[C@H](N)C(=O)N[C@H](C(=O)N2CCC[C@H]2C(=O)N[C@@H](Cc2c[nH]c3ccccc23)C(=O)N[C@@H](Cc2ccccc2)C(=O)N[C@@H](CO)C(=O)N[C@@H](CCCCN)C(=O)N[C@@H](Cc2ccccc2)C(=O)N[C@H](CC(C)C)C(=O)N[C@H](CCCCN)C(=O)N[C@@H](CCCNC(=N)N)C(=O)N[C@H](C(=O)N[C@@H](CC(C)C)C(N)=O)[C@@H](C)CC)C(C)C)cc1 [C, H-Phe(4-NHCO(CH2)3CH3)-Val-Pro-Trp-Phe-Ser-Lys-Phe-DLeu-DLys-Arg-Ile- Leu-NH2] (H-[Phe(4-NH2)](Pentanoyl)VPWFSKF[dL][dK]RIL-NH2) | – | – | 6.25 | 39.5 µM | 80 | up to 1 h | 13.29 |
